Source: PMC3511402, “Structural and Biochemical Studies on ATP Binding and Hydrolysis by the Escherichia coli RNA Chaperone Hfq” (PLoS ONE, 2012)

Tests used:
[1] = biological target: T1, full length E. coli Hfq (Escherichia coli, UniProt P0A6X3); test: EMSA competition with […]'-labelled poly(A)[…] RNA; type: binding; conditions: 5 nM poly(A)27, 40 nM Hfq hexamer, pH 7.5, 2 mM MgOAc, room temperature; distal site competition
T1 construct: full length, no added His tag (native histidines); plasmid pUH5 in E. coli AM111F' (printed for the ATPase preparations); hexamer
T1 sequence (P0A6X3 2-102): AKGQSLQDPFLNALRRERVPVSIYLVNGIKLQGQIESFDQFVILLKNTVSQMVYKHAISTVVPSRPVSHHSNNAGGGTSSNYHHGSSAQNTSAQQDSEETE

[2] = biological target: T2, Hfq65 (Escherichia coli, UniProt P0A6X3); test: X-ray crystal structure, […] Å; type: binding; conditions: distal-face R-sites, four of six sites occupied; ATP 1:1 per subunit; Hepes pH ~7.5
T2 construct: gene hfq; C-terminally truncated, aa 1-65; plasmid pUHfq65 expressed in E. coli hfq- strain AM111F'; untagged; hexamer
T2 sequence (P0A6X3 1-65): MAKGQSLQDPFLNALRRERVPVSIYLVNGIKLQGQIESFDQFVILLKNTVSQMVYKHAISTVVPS

Compound: Nc1ncnc2c1ncn2[C@@H]1O[C@H](COP(=O)(O)OP(=O)(O)OP(=O)(O)O)[C@@H](O)[C@H]1O [ATP]
- % RNA released at 10 mM ATP [1]: ~ 50%
- X-ray crystal structure, 2.15 Å [2]: electron density corresponding to the ATP molecules was observed in four out of six R-sites
